In publication PMC6010526, “In Silico Approaches Applied to the Study of Peptide Analogs of Ile-Pro-Ile in Relation to Their Dipeptidyl Peptidase IV Inhibitory Properties” (Frontiers in Endocrinology, 2018):
Like-named read-outs stand apart in the source and are kept apart here. Residues, ends and D or L forms follow the SMILES beside them.

Experiments:
porcine DPP-IV [1] = target: T1, porcine DPP-IV (Sus scrofa, UniProt P22411); assay: DPP-IV inhibition assay with Gly-Pro-pNA substrate; type: biochemical; set-up: purchased Sigma Aldrich (Dublin, Ireland); conditions: for IC50: porcine DPP-IV, Gly-Pro-pNA 0.200 mM, 37°C, n = 3, read-out: Experimental DPP-IV IC50
T1 sequence (P22411 whole entry): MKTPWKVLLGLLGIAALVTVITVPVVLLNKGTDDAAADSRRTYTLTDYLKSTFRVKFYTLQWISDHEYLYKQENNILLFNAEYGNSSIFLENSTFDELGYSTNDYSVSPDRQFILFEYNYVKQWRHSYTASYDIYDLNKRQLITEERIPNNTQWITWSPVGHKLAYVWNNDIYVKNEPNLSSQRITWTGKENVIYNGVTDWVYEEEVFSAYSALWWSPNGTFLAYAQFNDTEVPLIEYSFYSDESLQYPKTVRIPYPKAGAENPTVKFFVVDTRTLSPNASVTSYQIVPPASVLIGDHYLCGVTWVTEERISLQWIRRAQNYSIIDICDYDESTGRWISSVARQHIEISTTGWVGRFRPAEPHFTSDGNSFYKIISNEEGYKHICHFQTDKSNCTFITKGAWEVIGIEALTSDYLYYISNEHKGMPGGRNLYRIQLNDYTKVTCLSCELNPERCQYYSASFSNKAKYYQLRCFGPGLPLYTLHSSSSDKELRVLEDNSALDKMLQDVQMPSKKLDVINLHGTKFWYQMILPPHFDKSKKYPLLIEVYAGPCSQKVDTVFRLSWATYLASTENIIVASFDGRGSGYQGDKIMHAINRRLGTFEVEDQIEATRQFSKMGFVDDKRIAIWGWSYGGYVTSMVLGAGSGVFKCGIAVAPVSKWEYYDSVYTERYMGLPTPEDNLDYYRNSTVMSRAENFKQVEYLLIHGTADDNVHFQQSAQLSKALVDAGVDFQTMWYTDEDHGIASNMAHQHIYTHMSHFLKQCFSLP
Experimental: Peptides were dispersed in HPLC grade water at 50 and 500 µM (final concentration). The DPP-IV inhibition assay was carried out in triplicate as outlined by Nongonierma and FitzGerald ([18]). Briefly, samples (25 μL) were mixed with Gly-Pro-pNA (final concentration 0.200 mM) and DPP-IV (final concentration 0.0025 U mL^−1) in a 96-well microplate (Sarstedt, Dublin, Ireland). The microplate was incubated at 37°C for 60 min in a microplate reader (Biotek Synergy HT, Winooski, VT, USA) and absorbance was monitored at 405 nm.
Dose–response curves were determined for peptides displaying a percentage of inhibition > 50% at 500 µM. Peptides were diluted in HPLC water at concentrations ranging from 0.37 to 500 µM (final concentration). The DPP-IV IC50 values were determined by plotting the percentage inhibition as a function of the test compound concentration. Each analysis was carried out in triplicate (n = 3).

porcine DPP-IV [2] = target: T1, porcine DPP-IV; assay: Stability of peptides to hydrolysis by DPP-IV (LC-MS/MS); conditions: for Hydrolysis by DPP-IV (stability), in words: 30 min incubation with DPP-IV; for Peptide hydrolyzed by DPP-IV: peptide at 1/4 of IC50, 30 min at 37°C, Tris-HCl buffer pH 8.0
Experimental: Stability of the peptides to hydrolysis by DPP-IV was evaluated by liquid chromatography tandem mass spectrometry (LC-MS/MS) using the samples generated during the Lineweaver and Burk analysis containing DPP-IV inhibitory peptides at their IC50 values divided by 4 as previously described ([24]). Following the 30 min reaction, DPP-IV was heat inactivated by immersing samples in a water bath set at 90°C for 20 min. Test samples were subsequently diluted 40 times in mobile phase A (0.1% FA in MS water). Intact peptides were analyzed at the same concentration as the test samples. The peptide composition of the samples was determined as described previously ([25]). Briefly, an ultra-high performance liquid chromatography (UHPLC) UltiMate 3000 (Dionex, Camberley, Surrey, UK) fitted with a security guard UHPLC C18 PEPTIDE (2.1 mm, Phenomenex, Cheshire, UK) and an Aeris Peptide XB-C18 column (150 mm × 2.1 mm, 1.7 µm, Phenomenex) was used for peptide separation at 25°C. A sample volume of 2 µL was injected with a solvent delay of 4 min. The UHPLC was coupled to a quadrupole time-of-flight mass spectrometer (Q-TOF, Impact HD™, Bruker Daltonics GmbH, Bremen, Germany) using a 50–600 m/z acquisition range. The MS was fitted with an electrospray ionization source used in positive ion mode. Data acquisition was performed with Hystar software (Bruker Daltonics). Data analysis was performed with Compass Data Analysis 4.2 (Bruker Daltonics).

DPP-IV [3] = system: DPP-IV; set-up: method as in PMID 1671823; conditions: after 36 min incubation; ref [47]; cited from earlier work
DPP-IV [4] = conditions: competitive inhibitory peptides used in QSAR model, cited from earlier work
[5] = cited from earlier work
[6] = target: human dipeptidyl peptidase IV; set-up: method as in PMID 24512990; conditions: most potent peptide of Trp-Arg-Xaa library; ref [14]; read-out: DPP-IV IC50; cited from earlier work
DPP-IV [7] = conditions: cited from earlier work

inhibition at 500 µM (porcine DPP-IV [1]; peptide at 500 µM) | IC50 (porcine DPP-IV [1]) | Hydrolysis by DPP-IV (stability), in words (porcine DPP-IV [2]) | Peptide hydrolyzed by DPP-IV (porcine DPP-IV [2]) | Molecule | further results
> 65% | 44.3 ± 3.2 µM | not hydrolyzed by DPP-IV | NO | C[C@H](N)C(=O)N1CCC[C@H]1C(=O)N[C@@H](C)C(=O)O [APA, Ala-Pro-Ala] (H-Ala-Pro-Ala-OH; N-terminus and C-terminus assumed) | –
> 65% | 65.8 ± 5.5 µM | not hydrolyzed by DPP-IV | NO | C[C@H](N)C(=O)N1CCC[C@H]1C(=O)N[C@@H](Cc1ccccc1)C(=O)O [APF, Ala-Pro-Phe] (H-Ala-Pro-Phe-OH; N-terminus and C-terminus assumed) | –
> 65% | 120 ± 3.5 µM | not hydrolyzed by DPP-IV | NO | C[C@H](N)C(=O)N1CCC[C@H]1C(=O)N[C@@H](CCCNC(=N)N)C(=O)O [APR, Ala-Pro-Arg] (H-Ala-Pro-Arg-OH; N-terminus and C-terminus assumed) | –
62.9 ± 10.1% | 247 ± 32.7 µM | partly hydrolyzed by DPP-IV | YES | N[C@@H](Cc1ccccc1)C(=O)N1CCC[C@H]1C(=O)N[C@@H](Cc1ccccc1)C(=O)O [FPF, Phe-Pro-Phe] (H-Phe-Pro-Phe-OH; N-terminus and C-terminus assumed) | –
– | 54.9 ± 2.9 µM | partly hydrolyzed by DPP-IV | YES | N[C@@H](Cc1ccccc1)C(=O)N1CCC[C@H]1C(=O)N[C@@H](Cc1c[nH]c2ccccc12)C(=O)O [FPW, Phe-Pro-Trp] (H-Phe-Pro-Trp-OH; N-terminus and C-terminus assumed) | –
9.6 ± 1.9% | – | – | – | CC[C@H](C)[C@H](N)C(=O)N[C@@H](C)C(=O)N[C@H](C(=O)O)[C@@H](C)CC [IAI, Ile-Ala-Ile] (H-Ile-Ala-Ile-OH; N-terminus and C-terminus assumed) | % DPP-IV inhibition (porcine DPP-IV [1]; peptide at 500 µM, 500 µM): < 10%
> 65% | 28.3 ± 3.4 µM | not hydrolyzed by DPP-IV | NO | CC[C@H](C)[C@H](N)C(=O)N1CCC[C@H]1C(=O)N[C@@H](C)C(=O)O [IPA, Ile-Pro-Ala] (H-Ile-Pro-Ala-OH; N-terminus and C-terminus assumed) | –
– | 47.3 ± 12.3 µM | partly hydrolyzed by DPP-IV | YES | CC[C@H](C)[C@H](N)C(=O)N1CCC[C@H]1C(=O)N[C@@H](Cc1ccccc1)C(=O)O [IPF, Ile-Pro-Phe] (H-Ile-Pro-Phe-OH; N-terminus and C-terminus assumed) | –
> 65% | – | – | – | CC[C@H](C)[C@H](N)C(=O)N1CCC[C@H]1C(=O)N[C@H](C(=O)O)[C@@H](C)CC [IPI, Ile-Pro-Ile] | initial amount cleaved by DPP-IV (DPP-IV [3]): 37%
– | 175 ± 5.5 µM | partly hydrolyzed by DPP-IV | YES | CC[C@H](C)[C@H](N)C(=O)N1CCC[C@H]1C(=O)N[C@@H](Cc1c[nH]c2ccccc12)C(=O)O [IPW, Ile-Pro-Trp] (H-Ile-Pro-Trp-OH; N-terminus and C-terminus assumed) | –
< 25% | – | – | – | CC[C@H](C)[C@H](N)C(=O)N[C@@H](CCCNC(=N)N)C(=O)N[C@@H](Cc1ccccc1)C(=O)O [IRF, Ile-Arg-Phe] (H-Ile-Arg-Phe-OH; N-terminus and C-terminus assumed) | –
< 25% | – | – | – | CC[C@H](C)[C@H](N)C(=O)N[C@@H](CCCNC(=N)N)C(=O)N[C@@H](CCCCN)C(=O)O [IRK, Ile-Arg-Lys] (H-Ile-Arg-Lys-OH; N-terminus and C-terminus assumed) | –
> 65% | 74.5 ± 7 µM | not hydrolyzed by DPP-IV | NO | C[C@H](NC(=O)[C@@H]1CCCN1C(=O)[C@@H](N)CCCCN)C(=O)O [KPA, Lys-Pro-Ala] (H-Lys-Pro-Ala-OH; N-terminus and C-terminus assumed) | –
< 25% | – | – | – | N=C(N)NCCC[C@H](NC(=O)[C@H](CCCCN)NC(=O)[C@@H](N)CCCNC(=N)N)C(=O)O [RKR, Arg-Lys-Arg] (H-Arg-Lys-Arg-OH; N-terminus and C-terminus assumed) | –
– | 160 ± 12.8 µM | partly hydrolyzed by DPP-IV | YES | N[C@@H](Cc1c[nH]c2ccccc12)C(=O)N1CCC[C@H]1C(=O)N[C@@H](Cc1ccccc1)C(=O)O [WPF, Trp-Pro-Phe] (H-Trp-Pro-Phe-OH; N-terminus and C-terminus assumed) | –
– | 120 ± 13.1 µM | partly hydrolyzed by DPP-IV | YES | N[C@@H](Cc1c[nH]c2ccccc12)C(=O)N1CCC[C@H]1C(=O)N[C@@H](Cc1c[nH]c2ccccc12)C(=O)O [WPW, Trp-Pro-Trp] (H-Trp-Pro-Trp-OH; N-terminus and C-terminus assumed) | –
– | – | – | – | Glu-Lys [EK] | IC50 (DPP-IV [4]; ref [18]): 3220 µM
– | – | – | – | IPIQY | IC50 (DPP-IV [4]; ref [21]): 35.2 µM
– | – | – | – | Ile-Pro-Pro | Identification in human sera ([5]; following ingestion of a milk beverage enriched in lactotripeptides, ref [39]): identified in human sera
– | – | – | – | LLQLEAIR | IC50 (DPP-IV [4]; ref [24]): 178 µM
– | – | – | – | LPLPL | IC50 (DPP-IV [4]; ref [21]): 325 µM
– | – | – | – | LPQNIPPLT | IC50 (DPP-IV [4]; ref [17]): 205 µM
– | – | – | – | LPVP | IC50 (DPP-IV [4]; ref [24]): 87 µM
– | – | – | – | LPVPQ | IC50 (DPP-IV [4]; ref [17]): 43.7 µM
– | – | – | – | LPYPY | IC50 (DPP-IV [4]; ref [21]): 108 µM
– | – | – | – | MPVQA | IC50 (DPP-IV [4]; ref [24]): 93.3 µM
– | – | – | – | Trp-Arg-Glu | IC50 [6]: 350 µM
– | – | – | – | VPGEIVE | IC50 (DPP-IV [4]; ref [17]): 224 µM
– | – | – | – | Val-Pro-Leu [VPL] | times more potent than other food protein-derived peptides (DPP-IV [7]; DPP-IV inhibition, ref [5]): > 2 times; Mode of inhibition (DPP-IV [7]; Table S1, ref (2,3) of supplement): competitive; IC50 (DPP-IV [7]; ref [8]): 15.8 µM
– | – | – | – | Val-Pro-Pro | Identification in human sera ([5]; in vivo): identified in human sera
